Patent US11767330B2, “Citrate salt, pharmaceutical compositions, and methods of making and using the same” (Foghorn Therapeutics Inc., priority 2021, dated 2023)

What was measured:
Assay type in all cases: physicochemical
[1] = Dynamic vapor sorption (DVS) hygroscopicity
Protocol: Dynamic Vapor Sorption (DVS). DVS was performed using a Q5000SA. The sample (5-15 mg) was loaded into a metallic quartz sample pan, suspended from a microbalance, and exposed to a humidified stream of nitrogen gas. Weight changes were relative to a matching empty reference pan opposite the sample, suspended from the microbalance. One of two methods was used:
Method 1: The sample was held for a minimum of 10 min at each level and only progressed to the next humidity level if there was <0.002% change in weight between measurements (interval: 5 s) or 60 min had elapsed.

[2] = Physical stability by XRPD upon drying at 50° C. under vacuum and exposure to >95% RH
Protocol: (§1) X-Ray Powder Diffraction (XRPD). XRPD was performed using a Rigaku MiniFlex 600 in reflection mode (i.e., Bragg-Brentano geometry). Samples were prepared on Si zero-return wafers.
XRPD analysis was done in three stages. XRPD of the wet cake was done for all samples where solids were observed.
(§2) The solids were then exposed to >95% RH overnight. This humid environment was produced by placing a beaker of saturated potassium sulfate in water in a sealed container at RT. The materials exposed to these conditions were evaluated by XRPD, and their patterns were compared to those produced before.
as §2, with “The pattern FF-B was dried at 50° C. under vacuum for 3 h after filtration for further XRPD analysis. The solids” for “The solids”, “to those of the crystalline freebase along each step.” for “to those produced before.”

[3] = Stability at 40° C./75% RH for 1 week
Protocol: The humid environment was generated with saturated sodium chloride in water in a sealed container. After one week, the sample appeared pale-yellow upon inspection.
(§3) The one-week stability at 75% RH was also tested. In this experiment, 12 mg of the dried crystalline freebase from MeOH were weighted in a 4 mL vial and placed in a 20 mL vial set at 40° C. and 75% RH for 1 week. The humid environment was generated with saturated sodium chloride in water in a sealed container.
as §3, with “the” for “the dried”, “was” for “were”

[4] = Solid form characterisation (TGA/DSC, KF, XRPD, HPLC chemical and chiral purity); details: initial, before stability test
Protocol: Differential Scanning Calorimetry (DSC). DSC was performed using a Mettler Toledo DSC^3+. The sample (1-5 mg) was weighed directly in a 40 μL hermetic aluminum pan with a pinhole and analyzed according to the parameters in Tables 41 and 42.
High Performance Liquid Chromatography (HPLC). HPLC was conducted using an Agilent 1220 Infinity LC or Agilent 1220 Infinity 2 LC equipped with diode array detector (DAD). Flow rate range of the instrument is 0.2-5.0 mL/min, operating pressure range is 0-600 bar, temperature range is 5° C. above ambient to 60° C., and wavelength range is 190-600 nm.
Karl Fischer (KF) Titration. KF titration for water determination was performed using a Mettler Toledo C20S Coulometric KF Titrator equipped with a current generator cell with a diaphragm, and a double-platinum-pin electrode. The range of detection of the instrument is 1 ppm to 5% water. Aquastar™
CombiCoulomat fritless reagent was used in both the anode and cathode compartments. Samples of approximately 0.03-0.10 g were dissolved in the anode compartment and titrated until the solution potential dropped below 100 mV. Hydranal 1 wt. % water standard was used for validation prior to sample analysis.
Simultaneous Thermogravimetric Analysis and Differential Scanning Calorimetry (TGA and DSC). TGA and DSC were performed on the same sample simultaneously using a Mettler Toledo TGA/DSC^3+. Protective and purge gas was nitrogen at a flowrate of 20-30 mL/min and 50-100 mL/min, respectively. The desired amount of sample (5-10 mg) was weighed directly in a hermetic aluminum pan with pinhole and analyzed according to the parameters below:
as §1
XRPD was performed using a Bruker D8 Advance equipped with LYNXEYE detector in reflection mode (i.e., Bragg-Brentano geometry). Samples were prepared on Si zero-return wafers.

[5] = Forced degradation study of compound S-D1 (chiral HPLC)
Protocol: Sample solution stock was prepared by weighing 501.53 mg of compound S-D1 to a 100 mL volumetric flask, dissolving by ultrasonic in 50 mL of diluent 2, diluting to volume with diluent 2, and mixing well.
Unstressed sample solution was prepared by weighing 50.83 mg of compound S-D1 into a 100 mL volumetric flask, dissolving by ultrasonic in 50 mL of diluent 2, diluting to volume with diluent 2, and mixing well.
Sample solution for pH=4.0 solution stability was prepared as follows. 50.79 mg of compound S-D1 were weighed into a 100 mL volumetric flask, dissolved by ultrasonic in 50 mL of pH=4.0 50 mM sodium citrate buffer (see above), diluted to volume with pH=4.0 50 mM sodium citrate buffer, and mixed well.
Sample solution for pH=5.0 solution stability was prepared as follows. 50.66 mg of the compound of Formula I were weighed into a 100 mL volumetric flask, dissolved by ultrasonic in 50 mL of pH=5.0 50 mM sodium citrate buffer (see above), diluted to volume with 50 mL of pH=5.0 50 mM sodium citrate buffer and mixed well.
Sample solution for pH=7.0 solution stability was prepared as follows. 50.78 mg of compound S-D1 and 680.42 mg KH2PO4 were weighed into a 100 mL volumetric flask, dissolved by ultrasonic in 50 mL of diluent 1, transferred 29.1 mL of the 0.1N NaOH (see above), diluted to volume with diluent 1, and mixed well.
(§4) Acid degradation (1N HCl at RT). 3 mL of the sample stock solution (see above) into an 8 mL vial, added 3 mL of 2N HCl solution, and mixed well. Samples were prepared in quadruplicate and kept at room temperature (RT). At the sampling time point, 1 mL of the sample was transferred into a 5 mL volumetric flask, neutralized with 0.5 mL of […], diluted to volume with diluent 2, and mixed well.
as §4, with “Basic” for “Acid”, “(0.15N NaOH” for “(1N HCl”, “0.3N NaOH” for “2N HCl”
Thermal stress degradation (50° C. for solid). Approximately 150 mg of compound S-D1 were weighed into an 8 mL vial. Multiple samples were prepared and placed in an oven at 50° C. At the sampling time points, each of the 50.57 mg, 50.84 mg, and 50.84 mg samples were transferred into their respective 100 mL volumetric flasks, dissolved by ultrasonic in 50 mL of diluent 2, diluted to volume with diluent 2, and mixed well.
Solution Stability. The study was performed according to the conditions outlined in Table 15 using sample solution for pH=4.0 solution stability, sample solution for pH=5.0 solution stability, and sample solution for pH=7.0 solution stability (see above).

[6] = Acid Hydrolysis, 1N HCl RT, 0 h
[7] = Acid Hydrolysis, 1N HCl RT, 1 d
[8] = Acid Hydrolysis, 1N HCl RT, 2 d
[9] = Acid Hydrolysis, 1N HCl RT, 3 d
[10] = Base Hydrolysis, 0.15 N NaOH RT, 0 h
[11] = Base Hydrolysis, 0.15 N NaOH RT, 1 h
[12] = Solution Stability, pH = 4.0, 50 mM Sodium citrate buffer at RT, 0 h
[13] = Solution Stability, pH = 4.0, 50 mM Sodium citrate buffer at RT, 1 d
[14] = Solution Stability, pH = 4.0, 50 mM Sodium citrate buffer at RT, 2 d
[15] = Solution Stability, pH = 4.0, 50 mM Sodium citrate buffer at RT, 3 d
[16] = Solution Stability, pH = 5.0 50 mM Sodium citrate buffer at RT, 0 h
[17] = Solution Stability, pH = 5.0 50 mM Sodium citrate buffer at RT, 1 d
[18] = Solution Stability, pH = 5.0 50 mM Sodium citrate buffer at RT, 2 d
[19] = Solution Stability, pH = 5.0 50 mM Sodium citrate buffer at RT, 3 d
[20] = Solution Stability, pH = 7.0 Phosphate buffer at RT, 0 h
[21] = Solution Stability, pH = 7.0 Phosphate buffer at RT, 1 d
[22] = Solution Stability, pH = 7.0 Phosphate buffer at RT, 2 d
[23] = Solution Stability, pH = 7.0 Phosphate buffer at RT, 3 d

COc1cc(-c2cn(C)c(=O)c3cnc(N4CCC4)cc23)cc(OC)c1CN1CCC(CN2CCC3(CC2)CN(c2ccc4c(c2)C(=O)N([C@@H]2CCC(=O)NC2=O)C4)C3)CC1.O=C(O)CC(O)(CC(=O)O)C(=O)O [Citrate of Compound R-D1]
HPLC chemical purity after DVS analysis [1]: 99.55%
XRPD after DVS analysis [1]: did not show conversion to a crystalline pattern after performing the DVS analysis
hygroscopicity according to the European Pharmacopeia standards (DVS) [1]: very hygroscopic
Hygroscopicity by DVS (up to 95% RH) ([1]; mass change up to 95% RH): >25.55 wt. %
XRPD pattern Dry ([2]; after drying, Am = amorphous): Am
XRPD pattern Humid ([2]; after exposure to humidity, Am = amorphous): Am
XRPD pattern Wet ([2]; solid form of compound R-D1, Am = amorphous): Am
Purity by HPLC (%) After 1 week 75% RH chemical ([3]; 40° C./75% RH): 99.12%
Purity by HPLC (%) [chiral] [4]: [99.05] %
Purity by HPLC (%) chemical [4]: 99.46%

COc1cc(-c2cn(C)c(=O)c3cnc(N4CCC4)cc23)cc(OC)c1CN1CCC(CN2CCC3(CC2)CN(c2ccc4c(c2)C(=O)N([C@H]2CCC(=O)NC2=O)C4)C3)CC1 [S-D1]
% Degradation [5, 6]: 0.002%
Area % (R-D1) [5, 6]: 0.825%
Area % (S-D1) [5, 6]: 99.176%
% Degradation [5, 7]: 0.005%
Area % (R-D1) [5, 7]: 0.828%
Area % (S-D1) [5, 7]: 99.172%
% Degradation [5, 8]: 0.011%
Area % (R-D1) [5, 8]: 0.834%
Area % (S-D1) [5, 8]: 99.166%
% Degradation [5, 9]: 0.016%
Area % (R-D1) [5, 9]: 0.839%
Area % (S-D1) [5, 9]: 99.161%
% Degradation [5, 10]: 18.260%
Area % (R-D1) [5, 10]: 19.083%
Area % (S-D1) [5, 10]: 80.917%
% Degradation [5, 11]: 52.210%
Area % (R-D1) [5, 11]: 53.033%
Area % (S-D1) [5, 11]: 46.967%
% Degradation [5, 12]: 0.098%
Area % (R-D1) [5, 12]: 0.921%
Area % (S-D1) [5, 12]: 99.079%
% Degradation [5, 13]: 0.139%
Area % (R-D1) [5, 13]: 0.962%
Area % (S-D1) [5, 13]: 99.038%
% Degradation [5, 14]: 0.301%
Area % (R-D1) [5, 14]: 1.124%
Area % (S-D1) [5, 14]: 98.876%
% Degradation [5, 15]: 0.482%
Area % (R-D1) [5, 15]: 1.305%
Area % (S-D1) [5, 15]: 98.695%
% Degradation [5, 16]: 0.648%
Area % (R-D1) [5, 16]: 1.471%
Area % (S-D1) [5, 16]: 98.529%
% Degradation [5, 17]: 1.038%
Area % (R-D1) [5, 17]: 1.861%
Area % (S-D1) [5, 17]: 98.139%
% Degradation [5, 18]: 1.407%
Area % (R-D1) [5, 18]: 2.230%
Area % (S-D1) [5, 18]: 97.770%
% Degradation [5, 19]: 2.002%
Area % (R-D1) [5, 19]: 2.825%
Area % (S-D1) [5, 19]: 97.175%
% Degradation [5, 20]: 10.732%
Area % (R-D1) [5, 20]: 11.555%
Area % (S-D1) [5, 20]: 88.445%
% Degradation [5, 21]: 18.922%
Area % (R-D1) [5, 21]: 19.745%
Area % (S-D1) [5, 21]: 80.255%
% Degradation [5, 22]: 27.551%
Area % (R-D1) [5, 22]: 28.374%
Area % (S-D1) [5, 22]: 71.626%
% Degradation [5, 23]: 35.103%
Area % (R-D1) [5, 23]: 35.926%
Area % (S-D1) [5, 23]: 64.074%
% Degradation ([5]; Thermal, 50° C. (solid), 1 d): 0.178%
Area % (R-D1) ([5]; Thermal, 50° C. (solid), 1 d): 1.001%
Area % (S-D1) ([5]; Thermal, 50° C. (solid), 1 d): 98.999%
% Degradation ([5]; Thermal, 50° C. (solid), 3 d): 0.331%
Area % (R-D1) ([5]; Thermal, 50° C. (solid), 3 d): 1.154%
Area % (S-D1) ([5]; Thermal, 50° C. (solid), 3 d): 98.847%
% Degradation ([5]; Thermal, 50° C. (solid), 7 d): 0.380%
Area % (R-D1) ([5]; Thermal, 50° C. (solid), 7 d): 1.203%
Area % (S-D1) ([5]; Thermal, 50° C. (solid), 7 d): 98.797%
Area % (R-D1) ([5]; Unstressed): 0.823%
Area % (S-D1) ([5]; Unstressed): 99.177%

COc1cc(-c2cn(C)c(=O)c3cnc(N4CCC4)cc23)cc(OC)c1CN1CCC(CN2CCC3(CC2)CN(c2ccc4c(c2)C(=O)N([C@@H]2CCC(=O)NC2=O)C4)C3)CC1.O=C(O)CC(O)(CC(=O)O)C(=O)O [citrate-A]
physical stability (XRPD) upon drying at 50° C. under vacuum and exposure to >95% RH [2]: became amorphous after drying and exposure to RH

COc1cc(-c2cn(C)c(=O)c3cnc(N4CCC4)cc23)cc(OC)c1CN1CCC(CN2CCC3(CC2)CN(c2ccc4c(c2)C(=O)N([C@@H]2CCC(=O)NC2=O)C4)C3)CC1 [crystal pattern FF-A]
XRPD after storage ([3]; 40° C. and 75% RH): converted to compound R-D1, crystal pattern FF-B
